Data on one substance can be found in patent publication US8455435B2, “Remedies for ischemia” (Ludwig-Maximilians-Universitat Munchen, priority 2006, dated 2013).

In assay [1] the test system is CD45+/CD34+ and CD45+/CD34- cell populations in peripheral blood. Briefly: Flow cytometry of peripheral blood mononuclear cells after PTH or G-CSF in healthy mice. It counts as in vivo, C57BL/6 mice. The procedure: (§1) For the experiments healthy age- and sex-matched (male, 8-12 weeks of age) C57BL/6 mice (Charles River) were used. Animal care and all experimental procedures were performed in strict accordance to the German and National Institutes of Health animal legislation guidelines and were approved by the local animal care and use committees.
(§2) Mice were divided into the following groups: 1) administration of saline daily for 6 days, sacrificed at day 7 (n=6). 2) administration of PTH (Bachem) daily for 6 consecutive days (80 μg per kg body weight per day, intraperitoneally), sacrificed at day 7 (n=6). 3) administration of PTH daily for 14 consecutive days, sacrificed at day 15 (n=6). 4) administration of G-CSF (Amgen Biologicals) daily for 5 consecutive days (200 μg per kg body weight per day, intraperitoneally), sacrificed at day 6 (n=6).
(§3) at day 6, 1 ml of peripheral blood was harvested from each mouse by aspirating the carotid artery. Bone marrow cells were obtained by flushing the tibias and femurs from the euthanized mice. Mononuclear cells were separated by density-gradient centrifugation using 1.077 g/mL Histopaque solution (Sigma Chemicals), purified and resuspended in phosphate-buffered saline (PBS) containing 1% bovine serum albumin. Cells were incubated for 40 minutes in the dark at 4° C. with following fluorescein-isothiocyanate (FITC), phycoerythrin (PE), and peridinin-chlorphyll-protein (PerCP) conjugated monoclonal antibodies: CD45-PerCP, C34-FITC, CD31-PE, Sca-1-PE and c-kit-PE (all from BD Pharmingen). Isotype-identical antibodies (BD Pharmingen) served as controls. Cells were analyzed by 3-color flow cytometry using a Coulter® Epics® XL-MCL™ flow cytometer (Beckman Coulter). Each analysis included 20000 events. The absolute number of antigen-positive cells per ml of whole blood was calculated by multiplying the percentage of antigen-positive cells with the total number of mononuclear cells per ml of blood detected by the conventional hematological cell analyzer. The number of lymphocytes together with the number of monocytes comprised the total number of mononuclear cells.

In assay [2] the test system is CD45+/CD34+ and CD45+/CD34- cell populations in bone marrow. In words: Flow cytometry of bone marrow cells after PTH or G-CSF in healthy mice. Type of assay: in vivo, C57BL/6 mice. Here is the method:
as §1, §2, §3
Background: A flow cytometer gives signals particle by particle.

The next assay deals with myocardial infarction. In words: Survival after myocardial infarction (LAD occlusion), PTH treatment. Type of assay: in vivo, C57BL/6 mice. The conditions noted are these: 4 weeks after myocardial infarction, PTH 80 μg/kg/d s.c. Here is the method: Myocardial infarction was induced in male C57BL/6 mice 8-12 weeks of age by surgical occlusion of the left anterior descending artery (LAD) through a left anterolateral approach. Mice were anesthetized by intraperitoneal injection of a mixture of 100 mg/kg ketamine (Sigma Chemical Co., St. Louis, Mo.) and 5 mg/kg Xylazine (Sigma), intubated and artificially ventilated by a mouse ventilator (HUGO SACHS, March, Germany) with 200 strokes/min and 200 μl/stroke. Animal care and all experimental procedures were performed in strict accordance to the German and National Institutes of Health animal legislation guidelines and were approved by the local animal care and use committees.
After occlusion of the LAD, mice were divided into the following groups 1) subcutaneous administration of saline daily for 5 days, sacrificed at day 6 (n=10) and day 30 (n=15); 2) administration of rat PTH (1-34) daily for 5 and 14 consecutive days (80 μg/kg/d s.c., Bachem), sacrificed at day 6 (n=9) and day 30 (n=15); 3) sham operated animals sacrificed at day 30 (n=5), and not operated control animals receiving saline (n=6) sacrificed at day 6 and at day 30. All animals received BrdU (50 μg/kg/d) for 5 consecutive days. […]
Results were expressed as mean±S.E.M. For statistical analyses the unpaired Student's t-test was used. Mortality was analyzed by the Kaplan-Meier-method. […]

In assay [3] the test system is CD45/Sca-1 and CD45/CD34 positive stem cells. In words: PTH induced migration of CD45+ stem cells to the ischemic heart. The conditions noted are these: 48 hours after myocardial ischemia. Type of assay: in vivo, mice.
In a further assay the test system is CD31 positive vessels. In words: Neovascularization (CD31 positive vessels) in granulation tissue after MI, PTH treatment. It counts as in vivo, mice. Conditions: infarct and borderzone after PTH treatment. From the text: C) Representative staining of CD31 positive vessels (left: 100×, right: 400×) in the granulation tissue harboring the borderzone of PTH treated (upper row) and saline treated animals (lower row). […] All sections nuclei (blue) were counterstained with hematoxyline. *p<0.05 saline vs. PTH.

The subject of assay [4] is BrdU and Ki67 positive cells. In words: Immunohistochemistry of cell proliferation (BrdU, Ki67) after MI, PTH treatment. It counts as in vivo, C57BL/6 mice. The procedure:
After occlusion of the LAD, mice were divided into the following groups 1) subcutaneous administration of saline daily for 5 days, sacrificed at day 6 (n=10) and day 30 (n=15); 2) administration of rat PTH (1-34) daily for 5 and 14 consecutive days (80 μg/kg/d s.c., Bachem), sacrificed at day 6 (n=9) and day 30 (n=15); 3) sham operated animals sacrificed at day 30 (n=5), and not operated control animals receiving saline (n=6) sacrificed at day 6 and at day 30. All animals received BrdU ([…]) for 5 consecutive days. BrdU and cytokine treatment were started 12-24 hours after LAD occlusion.
At day 6 (n=10) and day 30 (n=10), hearts were excised. After fixation in 4% phosphate buffered formalin the hearts were cut transversally into 2 mm thick slices and embedded in paraffin. 4 μm thick sections were cut and mounted on positively charged glass slides. Standard histological procedures (hematoxilin/eosin and Masson trichrome) and immunostaining (see below) were performed.
For immunostaining mounted tissue sections were deparaffinized by rinsing 3×5 minutes in xylene followed by 2×5 minutes 100%, 2×5 minutes 96%, and 2×5 minutes 70% ethanol rinses. Endogenous peroxidases were quenched in 7.5% H2O2 in distilled water for 10 minutes. After rinsing in distilled water for 10 minutes and 2×5 minutes in TRIS-Buffer, pH 7.5, the slides were incubated at room temperature for 60 minutes with following primary antibodies: CD45 (rat anti-mouse, BD Pharmingen), ICAM-1 (goat anti-mouse, R&D), CD34 (rat anti-mouse, Linaris), Ki67 (goat anti-mouse, Santa Cruz) or BrdU (mouse monoclonal anti-BrdU, BD Pharmingen). Pre-treatment was performed for 30 minutes (microwave 750 W) using TRS 6 (Dako) for CD45, Glykol (biologo) for CD34, Retrievagen A (BD Pharmingen) for BrdU, and citrate buffer (10 mM, pH 6.0) for Ki67.
For detection of the immunoreaction Avidin-Biotinylated enzyme Comlex-Rat IgG, Avidin-Biotinylated enzyme Comlex-Goat IgG (both from Vector) or rabbit anti-goat IgG (DAKO) were used. Aminoethylcarbazol was used as chromogen (incubation 10 minutes). Thereafter, the slides were rinsed in running water and counterstained with hematoxilin Gill's Formula (Vector). Cover slides were mounted with Kaiser's glycerol gelatine. Doublestaining was performed for CD31 and Ki67 using an Avidin-Biotinylated enzyme Comlex-Goat IgG detection system and diaminobenzidine as chromogen and the APAAP-Rat system and chromogen red (all from Dako), respectively.
Quantitative assessments: a) granulation tissue: the number of BrdU and Ki76 positive nuclei were related to the total number of nuclei quantified in the granulation tissue. b) arterioles: only arterioles with high proliferative activity were enclosed.

Take rat PTH (1-34): the “increase of subpopulations of CD45+/CD34+ and CD45+/CD34- cells” value in assay [1] (PTH 80 μg/kg/d for 6 or 14 days, peripheral blood) was 1.5- to 9.8 fold. In addition, the “mobilization of CD45+/CD34+ cells by PTH compared to G-CSF treatment” value in assay [1] (PTH 80 μg/kg/d vs G-CSF 200 μg/kg/d 5 days) is given as 20-50%. Also, in assay [1] (PTH day 6 and day 14, G-CSF day 6), the “subtypes of CD45+/CD34+ and CD45+/CD34- cells in peripheral blood” value is listed as “significant increase”. Also, the “mobilization of stem cells which express c-kit” value in assay [1] (in comparison to a control) worked out at 5 fold. Also, the “number of mobilized subtypes of CD45+/CD34+ cells, PTH compared with G-CSF” value in assay [1] (peripheral blood) is recorded as “significant lower number”. For the same substance, in assay [1] (peripheral blood, p<0.05), the “mobilized CD45+/CD34-/c-kit+ cells, PTH compared with G-CSF” value is 49-50%. In assay [2] (PTH day 6, G-CSF), the “subtypes of CD45+/CD34- cells in bone marrow” value is listed as “significant decrease”. The “subtypes of CD45+CD34+ cells in bone marrow” value in assay [2] (PTH day 6 or day 14, G-CSF vs control group) is given as “no significant change”. Further, in the assay on myocardial infarction, the survival rate is reported as 60%. Besides, in the assay on myocardial infarction (listed as rPTH (1-34)), the survival rate is on record as 60.0%. Besides, in assay [3], the “migration of CD45/Sca-1 and CD45/CD34 positive stem cells to the heart” value is given as “enhanced migration”. For the same substance, in the assay with CD31 positive vessels, the angiogenesis entry is reported as “significantly increased”. Further, in assay [4] (6 days after MI), the “BrdU positive cells within the granulation tissue” value came out at 72.1±2.4%; the “Ki67 and BrdU positive cells within the remote area” value is given as “less than 1%”; the “Ki67 positive cells within the granulation tissue” value is reported as 34.8±4.8%. In addition, the “Ki67 positive endothelial cells associated with CD31 positive arterioles” value in assay [4] (compared to saline treated animals) is listed as “high numbers”. For the same substance, the “BrdU positive cells in the periinfarct region” value in assay [4] (day 30) is recorded as 99.1±25.0 /mm^2.
